Experimental data reported in patent US4347254A, “Tricyclic cage compounds, their synthesis and use as antiviral agents” (Sumitomo Chemical Company, Limited, priority 1978, dated 1982).
Several values for one entry are separate records, joined by “and”; a condition that tells them apart may be missing. Equal values may be shown once. Read-outs that look alike come from different tables or passages of the source.

Legend:
[1] = Acute toxicity: mortality after subcutaneous injection; assay type: in vivo, male dd-strain mice; set-up: key to appearance of hyperactivity / clonic convulsion: ±: appearance of hyperactivity; +: appearance of clonic convulsion; conditions: mice
Protocol: Six male dd-strain mice, weighing 25±3 g, were used in each group. Test drugs were injected subcutaneously (0.2 ml/10 g).
Mortality at the 3rd day after subcutaneous injection:-
^(*1) Number of deaths/Number of animals used.

[2] = system: catalepsy induced by haloperidol; test: Effects on the catalepsy induced by haloperidol (anti-catalepsy activity); assay type: in vivo, male dd-strain mice; conditions: for Number of showing anti-catalepty activity/Number of total animal: 0.5 hour after test drug, haloperidol 7 mg/kg s.c., hydrochloride
Protocol: Pharmcol., 22, 546-547 (1970)" or "J. May et al., Psychopharmcol., 24, 296-307 (1972)".
Effects on the catalepsy induced by haloperidol:
Six male dd-strain mice, weighing 25±3 g, were used in each group. Test drugs were injected intraperitoneally or subcutaneously 3.5 hours after the injection of haloperidol (7 mg/kg, s.c.).
The catalepsy was measured at 0.5 hour after injection of test drugs according to the method of Wirth et al. with slight modification [cf. Wirth, R., Gosswald, R., Horlein, V., Risse, K. H. and Kreiskott, H. Archs int. Pharmacodyn., Ther., 115, 1-31 (1958)].

[3] = system: Influenza A/PR/8/34 (HO,Nl) strain; test: microbe, parasite or virus in culture; assay type: cell-based, Influenza A virus; conditions: for minimal effective concentration: Influenza A virus, PR/8, 72 h, 34° C., 3 days, read-out: MEC (minimum effective concentration); for Chemotherapeutic index (MCC/MEC): 4320 min
[4] = Cytotoxicity in host cells by microscopic examination and retardation of cell growth rate; assay type: cell-based; conditions: dog; MDCK cells; hydrochloride; read-out: MCC (minimum cytotoxic concentration)
Protocol: Virus (Influenza A/PR/8/34 (HO,Nl) strain) and cell culture (MDCK cells) were used in this study and were grown in Earle-based Eagle-MEM containing 2.5 mg/ml of NaHCO3 and 10% fetal calf serum. Maintenance medium was Eagle's MEM containing 2.5 mg/ml NaHCO3, 0.1% bovine serum albumin and 20 μg/ml Tnypsin.
After washing MDCK Cell monolayers with PBS(-), maintenance medium containing 10^3 TCID50 of virus the drug was added to each culture tube and these tubes were then incubated at 34° C. for 3 days.
Antiviral effects and cytotoxicities of the test compounds were tested against influenza virus by the tube dilution assay.
Cytotoxicity was determined by microscopic examination and retardation of cell growth rate of host cell, and represented by minimum cytotoxicic concentration (MCC, μg/ml).

[5] = system: Influenza A/PR/8/34 (HO,Nl) strain; assay type: in vivo, Influenza A virus; ICR male mice; conditions: for LLS (lung lesion score): score 0-5, control 4.7; for efficacy compared with amantadine: as indicated in Table III
[6] = system: central nervous system (CNS); conditions: known drug; cited from earlier work
[7] = 1000 mg/kg s.c., hydrochloride (29-1: not hydrochloride)
[8] = hydrochloride (29-1: not hydrochloride)

SMILES	Number of showing anti-catalepty activity/Number of total animal ([2]; 500 mg/kg s.c.)	minimal effective concentration ([3]; MDCK cells, hydrochloride)	Chemotherapeutic index (MCC/MEC) ([3]; MDCK cells, hydrochloride)	MCC at 72 h [4]	other results
N[C@@H]1[C@H]2CC[C@H]3[C@@H]1CO[C@H]3C2 (relative stereo) [Compound No. 12-4, 5-Oxa-endo-2-amino-isotwistane]	0/6	50 µg/mL	2	100 µg/mL	Mortality rate at the 3rd day after subcutaneous injection (Number of deaths/Number of animals used) ([1]; 2000 mg/kg s.c., hydrochloride): 0/6; appearance of hyperactivity / clonic convulsion ([1]; 2000 mg/kg s.c., hydrochloride): ±
N[C@H]1[C@H]2CC[C@H]3[C@@H]1CO[C@H]3C2 (relative stereo) [Compound No. 12-9, 5-Oxa-exo-2-amino-isotwistane]		50 µg/mL	2	100 µg/mL	
CN[C@@H]1[C@H]2CC[C@H]3[C@@H]1CO[C@H]3C2 (relative stereo) [Compound No. 18-3, 5-Oxa-endo-2-N-methylamino-isotwistane]	1/6	50 µg/mL	> 4	> 200 µg/mL	appearance of hyperactivity / clonic convulsion ([1]; 1000 mg/kg s.c., hydrochloride): ±; Mortality rate at the 3rd day after subcutaneous injection (Number of deaths/Number of animals used) [1, 7]: 0/6
NC[C@@H]1[C@H]2CC[C@H]3[C@@H]1CO[C@H]3C2 (relative stereo) [Compound No. 25-3, 5-Oxa-endo-2-aminomethyl-isotwistane]	0/6	25 µg/mL	4	100 µg/mL	Mortality rate at the 3rd day after subcutaneous injection (Number of deaths/Number of animals used) [1, 7]: 0/6
NC[C@H]1[C@H]2CC[C@H]3[C@@H]1CO[C@H]3C2 (relative stereo) [Compound No. 67-1, exo-2-aminomethyl-5-oxa-isotwistane]		25 µg/mL	4	100 µg/mL	
NC12CC3CC(CC(C3)C1)C2 [Amantadine, reference compound]		12.5 µg/mL		12.5 µg/mL	Mortality rate at the 3rd day after subcutaneous injection (Number of deaths/Number of animals used) ([1]; 300 mg/kg s.c., hydrochloride): 6/6; Number of showing anti-catalepty activity/Number of total animal ([2]; 50 mg/kg s.c.): 3/6 and 2/6; antagonism of the catalepsy (in words), amantadine ([2]; at 50 mg/kg): antagonizes the catalepsy at 50 mg/kg; LLS (lung lesion score) ([5]; hydrochloride): 4.3; Chemotherapeutic index (MCC/MEC) ([3]; mdck): 1; CNS-effects (in words), amantadine [6]: strong effects on a central nervous system (CNS)
NC12COC3CC(CCC31)C2 (stereo not drawn) [Compound No. 12-3, 5-Oxa-3-amino-isotwistane]	2/6	50 µg/mL	2	100 µg/mL	Mortality rate at the 3rd day after subcutaneous injection (Number of deaths/Number of animals used) ([1]; 705 mg/kg s.c., hydrochloride): 0/6; appearance of hyperactivity / clonic convulsion ([1]; 705 mg/kg s.c., hydrochloride): ±; LLS (lung lesion score) [5, 8]: 3.6; efficacy compared with amantadine [5]: comparable to that of amantadine
NCC1C2CCC3C(COC13)C2 (stereo not drawn) [Compound No. 12-10]		25 µg/mL	4	100 µg/mL	
CNC12COC3CC(CCC31)C2 (stereo not drawn) [Compound No. 18-2, 5-Oxa-3-N-methylamino-isotwistane]		50 µg/mL	> 4	> 200 µg/mL	Mortality rate at the 3rd day after subcutaneous injection (Number of deaths/Number of animals used) ([1]; 500 mg/kg s.c., hydrochloride): 0/6; appearance of hyperactivity / clonic convulsion ([1]; 500 mg/kg s.c., hydrochloride): ±; Number of showing anti-catalepty activity/Number of total animal ([2]; 250 mg/kg s.c.): 3/6
NCC12COC3CC(CCC31)C2 (stereo not drawn) [Compound No. 27-2, 5-Oxa-3-aminomethyl-isotwistane]	1/6	25 µg/mL	8	200 µg/mL	Mortality rate at the 3rd day after subcutaneous injection (Number of deaths/Number of animals used) ([1]; 1190 mg/kg s.c., hydrochloride): 0/6; appearance of hyperactivity / clonic convulsion ([1]; 1190 mg/kg s.c., hydrochloride): ±; times as safe as amantadine (by chemotherapeutic index) ([3]; compared with amantadine): 8 times
NCCCC12COC3CC(CCC31)C2 (stereo not drawn) [Compound No. 27-4, 5-Oxa-3-(ω-amino-n-propyl)-isotwistane]		25 µg/mL	4	100 µg/mL	Mortality rate at the 3rd day after subcutaneous injection (Number of deaths/Number of animals used) ([1]; 250 mg/kg s.c., hydrochloride): 1/6; Mortality rate at the 3rd day after subcutaneous injection (Number of deaths/Number of animals used) ([1]; 500 mg/kg s.c., hydrochloride): 6/6
COC(=O)C12COC3CC(CC31)C2 (stereo not drawn) [Compound No. 29-1, 5-oxa-3-methoxycarbonyl-brendane]					Mortality rate at the 3rd day after subcutaneous injection (Number of deaths/Number of animals used) [1, 7]: 0/6; LLS (lung lesion score) [5, 8]: 4.3; efficacy compared with amantadine [5]: comparable to that of amantadine
CN(C)CC12COC3CC(CCC31)C2 (stereo not drawn) [Compound No. 41-5, 5-Oxa-3-N,N-dimethylaminomethyl-isotwistane]		50 µg/mL	2	100 µg/mL	
CC(N)C12COC3CC(CCC31)C2 (stereo not drawn) [Compound No. 44-1, 5-oxa-3-(α-aminoethyl)-isotwistane]		25 µg/mL	2	50 µg/mL	appearance of hyperactivity / clonic convulsion ([1]; 1000 mg/kg s.c., hydrochloride): ±; Mortality rate at the 3rd day after subcutaneous injection (Number of deaths/Number of animals used) [1, 7]: 0/6; Number of showing anti-catalepty activity/Number of total animal ([2]; 250 mg/kg s.c.): 1/6
NC1C2CC3COC1C3C2 (stereo not drawn) [Compound No. 44-3, 2-Amino-4-oxa-brendane]		50 µg/mL	2	100 µg/mL	
NC1C2CCC3C(COC13)C2 (stereo not drawn) [Compound No. 44-4, 2-Amino-4-oxa-isotwistane]	0/6	100 µg/mL	1	100 µg/mL	Mortality rate at the 3rd day after subcutaneous injection (Number of deaths/Number of animals used) [1, 7]: 0/6
NCC12CSC3CC(CC31)C2 (stereo not drawn) [Compound No. 49-1, 5-thia-3-aminomethyl-brendane]		25 µg/mL	2	50 µg/mL	Mortality rate at the 3rd day after subcutaneous injection (Number of deaths/Number of animals used) ([1]; 250 mg/kg s.c., hydrochloride): 0/6; appearance of hyperactivity / clonic convulsion ([1]; 250 mg/kg s.c., hydrochloride): +; Number of showing anti-catalepty activity/Number of total animal ([2]; 125 mg/kg s.c.): 1/6
NCC12CSC3CC(CCC31)C2 (stereo not drawn) [Compound No. 53-1]		12.5 µg/mL	2	25 µg/mL	Mortality rate at the 3rd day after subcutaneous injection (Number of deaths/Number of animals used) ([1]; 500 mg/kg s.c., hydrochloride): 3/6
